# In patent EP4635952A1, “SOLID FORM OF N-SUBSTITUTED PHENYLSULFONAMIDE COMPOUND” (Shanghai Leado Pharmatech Co. Ltd., priority 2022, dated 2024):
# Assay: Dynamic solubility in biorelevant media SGF, FaSSIF or water
# Assay type: physicochemical
# Details: FaSSIF, 37°C, dosed at 10 mg/mL, 1-24 hours, Figure 31
# Method: The dynamic solubility of fumarate crystal form B, hydrochloride crystal form C, sulfate crystal form D, succinate crystal form E, malate crystal form F, and free crystal form A was assessed at 37°C in biorelevant media SGF, FaSSIF or water. All samples were dosed at 10 mg/mL in each solvent. The samples were sealed and mounted on a rotating disk rotating at 25 rpm, and the rotating disk was placed in a 37° C. incubator. Samples were taken at time points 1, 2, 4, and 24 hours of equilibration, and the filtrate was separated and tested concentration by HPLC and pH, while isolated solids were characterized by XRPD.
row,dynamic solubility,SMILES
1,negligible dissolution,"CNCc1ccc(NS(=O)(=O)c2ccsc2)c(-c2ccco2)c1 [free crystal form A, N-(2-(furan-2-yl)-4-((methylamino)methyl)phenyl)thiophene-3-sulfonamide]"

# Same assay, conditions: water, 37°C, dosed at 10 mg/mL, 1-24 hours, Figure 31
row,dynamic solubility,SMILES
1,negligible dissolution,"CNCc1ccc(NS(=O)(=O)c2ccsc2)c(-c2ccco2)c1 [free crystal form A, N-(2-(furan-2-yl)-4-((methylamino)methyl)phenyl)thiophene-3-sulfonamide]"

# Assay: Approximate solubility in purified water
# Assay type: physicochemical
# Details: not given
# Method: To determine the approximate solubility, the corresponding solid form sample was added to a 3 mL glass vial. Purified water was incrementally introduced (50, 50, 200, and 700 µL) while vortexing and ultrasonically agitating to facilitate dissolution. […] Solvent addition was halted either when full dissolution was achieved or when the total water volume reached 1 mL. The approximate solubility was then calculated based on the final solvent volume used.
row,Solubility,SMILES
1,S>38.0 mg/mL,"CNCc1ccc(NS(=O)(=O)c2ccsc2)c(-c2ccco2)c1 [Pyroglutamate crystal form I, N-(2-(furan-2-yl)-4-((methylamino)methyl)phenyl)thiophene-3-sulfonamide]"

# Same assay, conditions: listed as Free form crystal A
row,Solubility,SMILES
1,S<2.0 mg/mL,"CNCc1ccc(NS(=O)(=O)c2ccsc2)c(-c2ccco2)c1 [free crystal form A, N-(2-(furan-2-yl)-4-((methylamino)methyl)phenyl)thiophene-3-sulfonamide]"

# Assay: Solid-state stability (HPLC purity and XRPD crystal form on storage)
# Assay type: physicochemical
# Details: 25°C /60%RH/open, 1 week, HPLC
# Method: About 10 mg of each solid form of the compound was weighed and added to the HPLC vial, respectively, the bottleneck was sealed with a sealing film, and 10 small holes were made on the film. The vial was placed in 25° C/60% RH and 40° C/75% RH environment for 4 weeks, samples were taken in the 1st week, the 2rd week and the 4th week respectively, the purity (by HPLC analysis) and crystal form (by X ray powder diffraction analysis) of the sample were investigated. […]
row,SMILES,Purity (area %)
1,"CNCc1ccc(NS(=O)(=O)c2ccsc2)c(-c2ccco2)c1 [Malonate crystal form K, N-(2-(furan-2-yl)-4-((methylamino)methyl)phenyl) thiophene-3-sulfonamide]",98.64
2,"CNCc1ccc(NS(=O)(=O)c2ccsc2)c(-c2ccco2)c1 [Pyroglutamate crystal form I, N-(2-(furan-2-yl)-4-((methylamino)methyl)phenyl)thiophene-3-sulfonamide]",98.61
3,"CNCc1ccc(NS(=O)(=O)c2ccsc2)c(-c2ccco2)c1 [free crystal form A, N-(2-(furan-2-yl)-4-((methylamino)methyl)phenyl)thiophene-3-sulfonamide]",98.18

# Further lines, results first:
row,Purity (area %),SMILES
1,98.11,"CNCc1ccc(NS(=O)(=O)c2ccsc2)c(-c2ccco2)c1 [Phosphate crystal form G, N-(2-(furan-2-yl)-4-((methylamino)methyl)phenyl)thiophene-3-sulfonamide]"
2,98.71,"CNCc1ccc(NS(=O)(=O)c2ccsc2)c(-c2ccco2)c1 [Tartrate crystal form H, N-(2-(furan-2-yl)-4-((methylamino)methyl)phenyl)thiophene-3-sulfonamide]"

# Same assay, conditions: 25°C /60%RH/open, 2 weeks, HPLC
row,SMILES,Purity (area %)
1,"CNCc1ccc(NS(=O)(=O)c2ccsc2)c(-c2ccco2)c1 [Malonate crystal form K, N-(2-(furan-2-yl)-4-((methylamino)methyl)phenyl) thiophene-3-sulfonamide]",98.61
2,"CNCc1ccc(NS(=O)(=O)c2ccsc2)c(-c2ccco2)c1 [Pyroglutamate crystal form I, N-(2-(furan-2-yl)-4-((methylamino)methyl)phenyl)thiophene-3-sulfonamide]",98.58
3,"CNCc1ccc(NS(=O)(=O)c2ccsc2)c(-c2ccco2)c1 [free crystal form A, N-(2-(furan-2-yl)-4-((methylamino)methyl)phenyl)thiophene-3-sulfonamide]",98.14

# Next, values leading:
row,Purity (area %),SMILES
1,98.09,"CNCc1ccc(NS(=O)(=O)c2ccsc2)c(-c2ccco2)c1 [Phosphate crystal form G, N-(2-(furan-2-yl)-4-((methylamino)methyl)phenyl)thiophene-3-sulfonamide]"
2,98.62,"CNCc1ccc(NS(=O)(=O)c2ccsc2)c(-c2ccco2)c1 [Tartrate crystal form H, N-(2-(furan-2-yl)-4-((methylamino)methyl)phenyl)thiophene-3-sulfonamide]"

# Same assay, conditions: 25°C /60%RH/open, 4 weeks, HPLC
row,SMILES,Purity (area %)
1,"CNCc1ccc(NS(=O)(=O)c2ccsc2)c(-c2ccco2)c1 [Malonate crystal form K, N-(2-(furan-2-yl)-4-((methylamino)methyl)phenyl) thiophene-3-sulfonamide]",98.59
2,"CNCc1ccc(NS(=O)(=O)c2ccsc2)c(-c2ccco2)c1 [Pyroglutamate crystal form I, N-(2-(furan-2-yl)-4-((methylamino)methyl)phenyl)thiophene-3-sulfonamide]",98.57
3,"CNCc1ccc(NS(=O)(=O)c2ccsc2)c(-c2ccco2)c1 [free crystal form A, N-(2-(furan-2-yl)-4-((methylamino)methyl)phenyl)thiophene-3-sulfonamide]",98.1

# The remaining lines, values ahead:
row,Purity (area %),SMILES
1,98.04,"CNCc1ccc(NS(=O)(=O)c2ccsc2)c(-c2ccco2)c1 [Phosphate crystal form G, N-(2-(furan-2-yl)-4-((methylamino)methyl)phenyl)thiophene-3-sulfonamide]"
2,98.6,"CNCc1ccc(NS(=O)(=O)c2ccsc2)c(-c2ccco2)c1 [Tartrate crystal form H, N-(2-(furan-2-yl)-4-((methylamino)methyl)phenyl)thiophene-3-sulfonamide]"

# Same assay, conditions: 25°C/60% RH and 40°C/75% RH, 4 weeks
HPLC purity,crystal form (XRPD) before and after placement,SMILES
did not decrease significantly,no detectable crystalline phase changes,"CNCc1ccc(NS(=O)(=O)c2ccsc2)c(-c2ccco2)c1 [free crystal form A, N-(2-(furan-2-yl)-4-((methylamino)methyl)phenyl)thiophene-3-sulfonamide]"

# Same assay, conditions: 40°C /75%RH/open, 1 week, HPLC
row,SMILES,Purity (area %)
1,"CNCc1ccc(NS(=O)(=O)c2ccsc2)c(-c2ccco2)c1 [Malonate crystal form K, N-(2-(furan-2-yl)-4-((methylamino)methyl)phenyl) thiophene-3-sulfonamide]",98.64
2,"CNCc1ccc(NS(=O)(=O)c2ccsc2)c(-c2ccco2)c1 [Pyroglutamate crystal form I, N-(2-(furan-2-yl)-4-((methylamino)methyl)phenyl)thiophene-3-sulfonamide]",98.61
3,"CNCc1ccc(NS(=O)(=O)c2ccsc2)c(-c2ccco2)c1 [free crystal form A, N-(2-(furan-2-yl)-4-((methylamino)methyl)phenyl)thiophene-3-sulfonamide]",98.19

# Other lines, results leading:
row,Purity (area %),SMILES
1,98.11,"CNCc1ccc(NS(=O)(=O)c2ccsc2)c(-c2ccco2)c1 [Phosphate crystal form G, N-(2-(furan-2-yl)-4-((methylamino)methyl)phenyl)thiophene-3-sulfonamide]"
2,98.7,"CNCc1ccc(NS(=O)(=O)c2ccsc2)c(-c2ccco2)c1 [Tartrate crystal form H, N-(2-(furan-2-yl)-4-((methylamino)methyl)phenyl)thiophene-3-sulfonamide]"

# Same assay, conditions: 40°C /75%RH/open, 2 weeks, HPLC
row,SMILES,Purity (area %)
1,"CNCc1ccc(NS(=O)(=O)c2ccsc2)c(-c2ccco2)c1 [Malonate crystal form K, N-(2-(furan-2-yl)-4-((methylamino)methyl)phenyl) thiophene-3-sulfonamide]",98.58
2,"CNCc1ccc(NS(=O)(=O)c2ccsc2)c(-c2ccco2)c1 [Pyroglutamate crystal form I, N-(2-(furan-2-yl)-4-((methylamino)methyl)phenyl)thiophene-3-sulfonamide]",98.54
3,"CNCc1ccc(NS(=O)(=O)c2ccsc2)c(-c2ccco2)c1 [free crystal form A, N-(2-(furan-2-yl)-4-((methylamino)methyl)phenyl)thiophene-3-sulfonamide]",98.2

# Further lines, results first:
row,Purity (area %),SMILES
1,98.06,"CNCc1ccc(NS(=O)(=O)c2ccsc2)c(-c2ccco2)c1 [Phosphate crystal form G, N-(2-(furan-2-yl)-4-((methylamino)methyl)phenyl)thiophene-3-sulfonamide]"
2,98.6,"CNCc1ccc(NS(=O)(=O)c2ccsc2)c(-c2ccco2)c1 [Tartrate crystal form H, N-(2-(furan-2-yl)-4-((methylamino)methyl)phenyl)thiophene-3-sulfonamide]"

# Same assay, conditions: 40°C /75%RH/open, 4 weeks, HPLC
row,SMILES,Purity (area %)
1,"CNCc1ccc(NS(=O)(=O)c2ccsc2)c(-c2ccco2)c1 [Malonate crystal form K, N-(2-(furan-2-yl)-4-((methylamino)methyl)phenyl) thiophene-3-sulfonamide]",98.46
2,"CNCc1ccc(NS(=O)(=O)c2ccsc2)c(-c2ccco2)c1 [Pyroglutamate crystal form I, N-(2-(furan-2-yl)-4-((methylamino)methyl)phenyl)thiophene-3-sulfonamide]",98.32
3,"CNCc1ccc(NS(=O)(=O)c2ccsc2)c(-c2ccco2)c1 [free crystal form A, N-(2-(furan-2-yl)-4-((methylamino)methyl)phenyl)thiophene-3-sulfonamide]",98.13

# Further lines, results first:
row,Purity (area %),SMILES
1,98.01,"CNCc1ccc(NS(=O)(=O)c2ccsc2)c(-c2ccco2)c1 [Phosphate crystal form G, N-(2-(furan-2-yl)-4-((methylamino)methyl)phenyl)thiophene-3-sulfonamide]"
2,98.53,"CNCc1ccc(NS(=O)(=O)c2ccsc2)c(-c2ccco2)c1 [Tartrate crystal form H, N-(2-(furan-2-yl)-4-((methylamino)methyl)phenyl)thiophene-3-sulfonamide]"

# Same assay, conditions: starting sample before storage, HPLC
row,SMILES,Initial purity (area %)
1,"CNCc1ccc(NS(=O)(=O)c2ccsc2)c(-c2ccco2)c1 [Malonate crystal form K, N-(2-(furan-2-yl)-4-((methylamino)methyl)phenyl) thiophene-3-sulfonamide]",98.64
2,"CNCc1ccc(NS(=O)(=O)c2ccsc2)c(-c2ccco2)c1 [Pyroglutamate crystal form I, N-(2-(furan-2-yl)-4-((methylamino)methyl)phenyl)thiophene-3-sulfonamide]",98.61
3,"CNCc1ccc(NS(=O)(=O)c2ccsc2)c(-c2ccco2)c1 [free crystal form A, N-(2-(furan-2-yl)-4-((methylamino)methyl)phenyl)thiophene-3-sulfonamide]",98.11

# Other lines, results leading:
row,Initial purity (area %),SMILES
1,98.11,"CNCc1ccc(NS(=O)(=O)c2ccsc2)c(-c2ccco2)c1 [Phosphate crystal form G, N-(2-(furan-2-yl)-4-((methylamino)methyl)phenyl)thiophene-3-sulfonamide]"
2,98.71,"CNCc1ccc(NS(=O)(=O)c2ccsc2)c(-c2ccco2)c1 [Tartrate crystal form H, N-(2-(furan-2-yl)-4-((methylamino)methyl)phenyl)thiophene-3-sulfonamide]"

# Assay: Hygroscopicity by dynamic moisture absorption (DVS)
# Assay type: physicochemical
# Details: DVS, 0% RH-95% RH adsorption curve, 25°C/80% RH
# Method: Dynamic moisture adsorption (DVS) analysis: the instrument is a DVS Intrinsic produced by SMS company (Surface Measurement Systems); temperature, 25° C.; carrier gas, flow rate: nitrogen, 200 mL/min; mass change per unit time: 0.002%/min; relative humidity range: 0%RH-95%RH.
# Dynamic moisture absorption (DVS) was used to test their hygroscopicity.
row,moisture adsorption [%],SMILES
1,1.6,"CNCc1ccc(NS(=O)(=O)c2ccsc2)c(-c2ccco2)c1 [free crystal form A, N-(2-(furan-2-yl)-4-((methylamino)methyl)phenyl)thiophene-3-sulfonamide]"

# Same assay, conditions: criteria of 2015 edition of the Chinese Pharmacopoeia (Guidelines for Drug Hygroscopicity Test); 25°C/80% RH
row,hygroscopicity classification,SMILES
1,slightly hygroscopic,"CNCc1ccc(NS(=O)(=O)c2ccsc2)c(-c2ccco2)c1 [free crystal form A, N-(2-(furan-2-yl)-4-((methylamino)methyl)phenyl)thiophene-3-sulfonamide]"
